# Assay results reported in publication PMC7663272, “Discovery of Tricyclic Pyranochromenone as Novel Bruton’s Tyrosine Kinase Inhibitors with In Vivo Antirheumatic Activity” (International Journal of Molecular Sciences, 2020).
# Test system: collagen-induced arthritis (CIA)
# Experiment: Murine model of collagen-induced arthritis (CIA)
# Assay type: in vivo
# Procedure: The in vivo efficacy of compound 8 was evaluated in a murine inflammatory model of collagen-induced arthritis (CIA). The study included four groups: a vehicle-treated control group and three treatment groups. The treatment groups comprised a dexamethasone-treated group, in which dexamethasone served as the positive control, and two treatment groups, in which animals were treated with compound 8 at doses of 10 and 50 mg/kg. Compound 8 was administered once daily for 15 days by oral gavage, and the in vivo efficacy was evaluated by measuring the clinical score and foot volume. […] There were no significant changes in the body weights of animals in all the treatment groups (data not shown) during treatment.
# The animal study was approved by the Institutional Animal Care and Use Committee (IACUC) of the Korea Research Institute of Bioscience and Biotechnology on March 15, 2017, under approval number KRIBB-AEC-17090. Male DBA1/JNCrli mice (7 weeks old) were purchased from Japan CRL, Inc. The mice were housed in specific pathogen-free (SPF) conditions and were allowed ad libitum access to food and water. After 7 days of acclimatization, the mice were immunized with 0.05 mL of a type II collagen emulsion (Hooke Kit^TM Chicken Collagen, Cat. No. EK-0210 from Hooke) and Freund’s complete adjuvant by subcutaneous injection at 1.5 cm distal from the base of the tail. After 21 days, the immunized mice were administered a booster injection with 0.05 mL of a type II collagen emulsion (Hooke Kit^TM Chicken Collagen, Cat. No. EK-0211 from Hooke) and Freund’s incomplete adjuvant. The emulsions were prepared according to the manufacturer’s instructions. On day 21, the mice with CIA were randomized into four groups. The animals in the four groups were administered either 0.3 mg/kg dexamethasone (n = 5), 10 mg/kg compound 8 (n = 5), 50 mg/kg compound 8 (n = 5), or vehicle (n = 5), once a day, for […], orally. The vehicle, in which all test compounds were suspended, comprised DMAC (10%), Tween 80 (10%), and DW (80%). Clinical arthritis scores and body weights were assessed three times per week for 15 days. The paw volumes were measured using a LE7500 plethysmometer (Panlab, Barcelona, Spain) on days 0 and 42.
structure (smiles),measurement,setting,value
"C=CC(=O)O[C@H]1Cc2cc3ccc(=O)oc3cc2OC1(C)C [Compound 8, (7S)-(+)-Acrylic acid, 8,8-dimethyl-2-oxo-6,7-dihydro-2H,8H-pyrano [3,2-g]chromen-7-yl ester]",toxicity,"mice with CIA, 10 and 50 mg/kg oral",no obvious toxicity
same,efficacy compared with dexamethasone,"mice, 50 mg/kg oral, dexamethasone 0.3 mg/kg",comparable to that of dexamethasone at 0.3 mg/kg
same,clinical scores vs control,"mice, 10 and 50 mg/kg, daily oral, t-test",differed significantly from those with the control
same,severity of CIA (clinical score and foot volume),"mice, 10 and 50 mg/kg, once daily, oral gavage, 15 days",significantly reduced the severity of CIA in a dose-dependent manner
